Data: PubChem BioAssay (NCI)
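Five concentrations, 48 hours, 96-well plates. GI50 = concentration required for 50% inhibition of growth. TGI: total growth inhibition.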 Where a SMILES comes first, the peptide text is derived from it. Bridges are numbered along the chain shown (N, C = ends). [ ]: non-standard residue; d: D form. ξ: configuration not given here. ξThr(3R) = C[C@@H](O)C(N)C(=O)O; S5 = C=CCCC[C@](C)(N)C(=O)O

How the values were obtained:
Test in all cases: growth of human tumour cells (NCI), 48 h
786-0 renal = system: 786-0 renal
A498 renal = system: A498 renal
A549 NSCLC = system: A549 NSCLC
ACHN renal = system: ACHN renal
BT-549 breast = system: BT-549 breast
CAKI-1 renal = system: CAKI-1 renal
CCRF-CEM leukemia = system: CCRF-CEM leukemia
COLO 205 colon = system: COLO 205 colon
DU-145 prostate = system: DU-145 prostate
EKVX NSCLC = system: EKVX NSCLC
HCC-2998 colon = system: HCC-2998 colon
HCT-116 colon = system: HCT-116 colon
HCT-15 colon = system: HCT-15 colon
HL-60(TB) leukemia = system: HL-60(TB) leukemia
HOP-62 NSCLC = system: HOP-62 NSCLC
HOP-92 NSCLC = system: HOP-92 NSCLC
HS 578T breast = system: HS 578T breast
HT29 colon = system: HT29 colon
K-562 leukemia = system: K-562 leukemia
KM12 colon = system: KM12 colon
LOX IMVI melanoma = system: LOX IMVI melanoma
M14 melanoma = system: M14 melanoma
MALME-3M melanoma = system: MALME-3M melanoma
MCF7 breast = system: MCF7 breast
MDA-MB-231 breast = system: MDA-MB-231 breast
MDA-MB-435 = system: MDA-MB-435
MOLT-4 leukemia = system: MOLT-4 leukemia
NCI-H226 lung = system: NCI-H226 lung
NCI-H23 lung = system: NCI-H23 lung
NCI-H460 lung = system: NCI-H460 lung
NCI-H522 lung = system: NCI-H522 lung
NCI/ADR-RES ovarian = system: NCI/ADR-RES ovarian
OVCAR-3 ovarian = system: OVCAR-3 ovarian
OVCAR-4 ovarian = system: OVCAR-4 ovarian
OVCAR-5 ovarian = system: OVCAR-5 ovarian
OVCAR-8 ovarian = system: OVCAR-8 ovarian
PC-3 prostate = system: PC-3 prostate
RPMI-8226 leukemia = system: RPMI-8226 leukemia
RXF 393 renal = system: RXF 393 renal
SF-268 CNS = system: SF-268 CNS
SF-295 CNS = system: SF-295 CNS
SF-539 CNS = system: SF-539 CNS
SK-MEL-2 melanoma = system: SK-MEL-2 melanoma
SK-MEL-28 melanoma = system: SK-MEL-28 melanoma
SK-MEL-5 melanoma = system: SK-MEL-5 melanoma
SK-OV-3 ovarian = system: SK-OV-3 ovarian
SN12C renal = system: SN12C renal
SNB-19 CNS = system: SNB-19 CNS
SNB-75 CNS = system: SNB-75 CNS
SW-620 colon = system: SW-620 colon
T-47D breast = system: T-47D breast
TK-10 renal = system: TK-10 renal
U251 CNS = system: U251 CNS
UACC-62 melanoma = system: UACC-62 melanoma
UO-31 renal = system: UO-31 renal

With `CC(=O)N[C@H](C(=O)N[C@@H](CCCNC(=N)N)C(=O)N[C@@H](CCCCN)C(=O)N[C@@H](CCCNC(=N)N)C(=O)NC(C(=O)N[C@@H](CC(C)C)C(=O)N[C@@H](CCCNC(=N)N)C(=O)N[C@@]1(C)CCC/C=C\CCC[C@@](C)(C(=O)N[C@@H](CCCNC(=N)N)C(=O)N[C@@H](CCC(=O)O)C(=O)N[C@@H](CC(C)C)C(=O)N[C@H](C(=O)N[C@@H](CCC(=O)O)C(N)=O)C(C)C)NC(=O)[C@H](CCC(N)=O)NC(=O)[C@H](CC(C)C)NC(=O)[C@H](CC(C)C)NC1=O)[C@@H](C)O)C(C)C` (stereo partly drawn) (Ac-VRKR[ξThr(3R)]LR[S5]LLQ[S5]RELVE-NH2; staple (Z) 8-12) the GI50 (786-0 renal) was 4.2 µM, the TGI (786-0 renal) was 12.6 µM and the GI50 (A498 renal) was 8.69 µM. It also gave a TGI (A498 renal) of 18.4 µM, a GI50 (A549 NSCLC) of 6.42 µM and a TGI (A549 NSCLC) of 14.3 µM. For the same compound, the GI50 (ACHN renal) was 6.97 µM, the TGI (ACHN renal) was 14.7 µM and the GI50 (BT-549 breast) was 3.45 µM. It also gave a TGI (BT-549 breast) of 11.1 µM, a GI50 (CAKI-1 renal) of 3.79 µM and a TGI (CAKI-1 renal) of 10.4 µM. It also gave a GI50 (CCRF-CEM leukemia) of 11.2 µM, a TGI (CCRF-CEM leukemia) of 34.2 µM and a GI50 (COLO 205 colon) of 2.41 µM. For the same compound, the TGI (COLO 205 colon) was 9.89 µM, the GI50 (DU-145 prostate) was 2.68 µM and the TGI (DU-145 prostate) was 9.2 µM. It also gave a GI50 (EKVX NSCLC) of 6.03 µM, a TGI (EKVX NSCLC) of 14.2 µM and a GI50 (HCC-2998 colon) of 7.67 µM. The TGI (HCC-2998 colon) was 18.2 µM, the GI50 (HCT-116 colon) was 8.87 µM and the TGI (HCT-116 colon) was 17.1 µM. For the same compound, the GI50 (HCT-15 colon) was 6.22 µM, the TGI (HCT-15 colon) was 14.7 µM and the GI50 (HL-60(TB) leukemia) was 7.23 µM. It also gave a TGI (HL-60(TB) leukemia) of 19.2 µM, a GI50 (HOP-62 NSCLC) of 3.24 µM and a TGI (HOP-62 NSCLC) of 11.8 µM. It also gave a GI50 (HOP-92 NSCLC) of 2.45 µM, a TGI (HOP-92 NSCLC) of 8.89 µM and a GI50 (HS 578T breast) of 1.48 µM. It also gave a TGI (HS 578T breast) of 5.31 µM, a GI50 (HT29 colon) of 7.56 µM and a TGI (HT29 colon) of 16.4 µM. For the same compound, the GI50 (K-562 leukemia) was 9.12 µM, the TGI (K-562 leukemia) was 19.7 µM and the GI50 (KM12 colon) was 1.99 µM. The TGI (KM12 colon) was 8.03 µM, the GI50 (LOX IMVI melanoma) was 8.64 µM and the TGI (LOX IMVI melanoma) was 18.8 µM. For the same compound, the GI50 (M14 melanoma) was 4.27 µM, the TGI (M14 melanoma) was 11.5 µM and the GI50 (MALME-3M melanoma) was 1.76 µM. For the same compound, the TGI (MALME-3M melanoma) was 7.14 µM, the GI50 (MCF7 breast) was 3.41 µM and the TGI (MCF7 breast) was 11.7 µM. It also gave a GI50 (MDA-MB-231 breast) of 8.24 µM, a TGI (MDA-MB-231 breast) of 17.1 µM and a GI50 (MDA-MB-435) of 1.94 µM. The TGI (MDA-MB-435) was 7.56 µM, the GI50 (MOLT-4 leukemia) was 9.85 µM and the TGI (MOLT-4 leukemia) was 22.9 µM. The GI50 (NCI-H226 lung) was 5.31 µM, the TGI (NCI-H226 lung) was 14.8 µM and the GI50 (NCI-H23 lung) was 5.26 µM. It also gave a TGI (NCI-H23 lung) of 13.3 µM, a GI50 (NCI-H460 lung) of 1.76 µM and a TGI (NCI-H460 lung) of 6.84 µM. It also gave a GI50 (NCI-H522 lung) of 5.75 µM, a TGI (NCI-H522 lung) of 16.4 µM and a GI50 (NCI/ADR-RES ovarian) of 7.9 µM. For the same compound, the TGI (NCI/ADR-RES ovarian) was 16.7 µM, the GI50 (OVCAR-3 ovarian) was 8.16 µM and the TGI (OVCAR-3 ovarian) was 15.7 µM. For the same compound, the GI50 (OVCAR-4 ovarian) was 9.5 µM, the TGI (OVCAR-4 ovarian) was 20 µM and the GI50 (OVCAR-5 ovarian) was 8.96 µM. It also gave a TGI (OVCAR-5 ovarian) of 18.1 µM, a GI50 (OVCAR-8 ovarian) of 2.14 µM and a TGI (OVCAR-8 ovarian) of 8.32 µM. It also gave a GI50 (PC-3 prostate) of 7.76 µM, a TGI (PC-3 prostate) of 15.3 µM and a GI50 (RPMI-8226 leukemia) of 8.77 µM. The TGI (RPMI-8226 leukemia) was 18.9 µM, the GI50 (RXF 393 renal) was 2.7 µM and the TGI (RXF 393 renal) was 12.1 µM. For the same compound, the GI50 (SF-268 CNS) was 2.1 µM, the TGI (SF-268 CNS) was 8.62 µM and the GI50 (SF-295 CNS) was 4.69 µM. It also gave a TGI (SF-295 CNS) of 12.1 µM, a GI50 (SF-539 CNS) of 2.1 µM and a TGI (SF-539 CNS) of 7.54 µM. For the same compound, the GI50 (SK-MEL-2 melanoma) was 4.73 µM, the TGI (SK-MEL-2 melanoma) was 17.2 µM and the GI50 (SK-MEL-28 melanoma) was 3.93 µM. It also gave a TGI (SK-MEL-28 melanoma) of 11.3 µM, a GI50 (SK-MEL-5 melanoma) of 2.01 µM and a TGI (SK-MEL-5 melanoma) of 8.43 µM. It also gave a GI50 (SK-OV-3 ovarian) of 5.55 µM, a TGI (SK-OV-3 ovarian) of 14.9 µM and a GI50 (SN12C renal) of 3.33 µM. It also gave a TGI (SN12C renal) of 10.7 µM, a GI50 (SNB-19 CNS) of 7.94 µM and a TGI (SNB-19 CNS) of 17.9 µM. For the same compound, the GI50 (SNB-75 CNS) was 3.8 µM, the TGI (SNB-75 CNS) was 10.8 µM and the GI50 (SW-620 colon) was 8.29 µM. The TGI (SW-620 colon) was 16.2 µM, the GI50 (T-47D breast) was 1.05 µM and the TGI (T-47D breast) was 2.68 µM. The GI50 (TK-10 renal) was 1.33 µM, the TGI (TK-10 renal) was 4.38 µM and the GI50 (U251 CNS) was 2.99 µM. For the same compound, the TGI (U251 CNS) was 10.4 µM, the GI50 (UACC-62 melanoma) was 1.13 µM and the TGI (UACC-62 melanoma) was 2.81 µM. For the same compound, the GI50 (UO-31 renal) was 9.2 µM and the TGI (UO-31 renal) was 17.5 µM.
